# Laboratory results reported in the supplement of paper PMC10307832.
# Experiments:
# Test in all cases: relative viability (nuclei count vs DMSO), 5 days (fraction); higher = more cells survive
# [1] = system: ABC-1
# Method in brief: (§1)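 Cells from lung cancer lines were seeded into 1536-well plates and, one day later, dosed by pin tool. Treatments were either a single drug or a fixed dose of an anchor drug with five library-drug doses (not always all listed) in √10 steps. After 5 days, nuclei were stained in a one-step fixation (final 0.05% Triton X-100, 1% formaldehyde, 1 ug/ml Hoechst) and counted on 4× images, and relative viability is the treated-to-vehicle nuclei ratio, as the median of duplicate plates.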
# [2] = system: CAL-12T
# Method in brief: as §1
# [3] = system: ChaGo-K-1
# Method in brief: as §1
# [4] = system: HCC-44
# Method in brief: as §1
# [5] = system: HCC-827
# Method in brief: as §1
# [6] = system: LCLC-103H
# Method in brief: as §1
# [7] = system: LU99A
# Method in brief: as §1
# [8] = system: LXF-289
# Method in brief: as §1
# [9] = system: NCI-H1395
# Method in brief: as §1
# [10] = system: NCI-H1666
# Method in brief: as §1
# [11] = system: NCI-H1755
# Method in brief: as §1
# [12] = system: NCI-H1792
# Method in brief: as §1
# [13] = system: NCI-H1793
# Method in brief: as §1
# [14] = system: NCI-H1944
# Method in brief: as §1
# [15] = system: NCI-H2126
# Method in brief: as §1
# [16] = system: NCI-H2347
# Method in brief: as §1
# [17] = system: NCI-H3122
# Method in brief: as §1
# [18] = system: NCI-H322M
# Method in brief: as §1
# [19] = system: NCI-H358
# Method in brief: as §1
# [20] = system: RERF-LC-KJ
# Method in brief: as §1
structure (smiles),measurement,setting,value
CCNC(=O)c1noc(-c2cc(C(C)C)c(O)cc2O)c1-c1ccc(CN2CCOCC2)cc1 [Luminespib] + NC(=O)Nc1cc(-c2cccc(F)c2)sc1C(=O)N[C@H]1CCCNC1 [AZD7762] (partner 0.2 µM),relative viability,[1]; first compound 0.002 µM,0.822
same,relative viability,[1]; first compound 0.006325 µM,0.737
same,relative viability,[1]; first compound 0.02 µM,0.715
same,relative viability,[1]; first compound 0.06325 µM,0.248
same,relative viability,[1]; first compound 0.2 µM,0.212
same,relative viability,[2]; first compound 0.002 µM,0.698
same,relative viability,[2]; first compound 0.006325 µM,0.691
same,relative viability,[2]; first compound 0.02 µM,0.542
same,relative viability,[2]; first compound 0.06325 µM,0.188
same,relative viability,[2]; first compound 0.2 µM,0.182
same,relative viability,[3]; first compound 0.002 µM,0.9
same,relative viability,[3]; first compound 0.006325 µM,0.905
same,relative viability,[3]; first compound 0.02 µM,0.799
same,relative viability,[3]; first compound 0.06325 µM,0.515
same,relative viability,[3]; first compound 0.2 µM,0.172
same,relative viability,[4]; first compound 0.002 µM,1.04
same,relative viability,[4]; first compound 0.006325 µM,0.995
same,relative viability,[4]; first compound 0.02 µM,1.15
same,relative viability,[4]; first compound 0.06325 µM,1.07
same,relative viability,[4]; first compound 0.2 µM,0.959
same,relative viability,[5]; first compound 0.002 µM,0.162
same,relative viability,[5]; first compound 0.006325 µM,0.234
same,relative viability,[5]; first compound 0.02 µM,0.16
same,relative viability,[5]; first compound 0.06325 µM,0.124
same,relative viability,[5]; first compound 0.2 µM,0.0952
same,relative viability,[6]; first compound 0.002 µM,0.934
same,relative viability,[6]; first compound 0.006325 µM,0.699
same,relative viability,[6]; first compound 0.02 µM,0.639
same,relative viability,[6]; first compound 0.06325 µM,0.739
same,relative viability,[6]; first compound 0.2 µM,0.726
same,relative viability,[7]; first compound 0.002 µM,0.378
same,relative viability,[7]; first compound 0.006325 µM,0.347
same,relative viability,[7]; first compound 0.02 µM,0.214
same,relative viability,[7]; first compound 0.06325 µM,0.0724
same,relative viability,[7]; first compound 0.2 µM,0.0654
same,relative viability,[8]; first compound 0.002 µM,1.07
same,relative viability,[8]; first compound 0.006325 µM,1.1
same,relative viability,[8]; first compound 0.02 µM,1.12
same,relative viability,[8]; first compound 0.06325 µM,0.151
same,relative viability,[8]; first compound 0.2 µM,0.0914
same,relative viability,[9]; first compound 0.002 µM,0.399
same,relative viability,[9]; first compound 0.006325 µM,0.372
same,relative viability,[9]; first compound 0.02 µM,0.374
same,relative viability,[9]; first compound 0.06325 µM,0.343
same,relative viability,[9]; first compound 0.2 µM,0.384
same,relative viability,[10]; first compound 0.002 µM,0.828
same,relative viability,[10]; first compound 0.006325 µM,0.835
same,relative viability,[10]; first compound 0.02 µM,0.903
same,relative viability,[10]; first compound 0.06325 µM,0.78
same,relative viability,[10]; first compound 0.2 µM,0.589
same,relative viability,[11]; first compound 0.002 µM,0.429
same,relative viability,[11]; first compound 0.006325 µM,0.355
same,relative viability,[11]; first compound 0.02 µM,0.352
same,relative viability,[11]; first compound 0.06325 µM,0.245
same,relative viability,[11]; first compound 0.2 µM,0.161
same,relative viability,[12]; first compound 0.002 µM,0.797
same,relative viability,[12]; first compound 0.006325 µM,0.519
same,relative viability,[12]; first compound 0.02 µM,0.146
same,relative viability,[12]; first compound 0.06325 µM,0.0335
same,relative viability,[12]; first compound 0.2 µM,0.0361
same,relative viability,[13]; first compound 0.002 µM,0.406
same,relative viability,[13]; first compound 0.006325 µM,0.422
same,relative viability,[13]; first compound 0.02 µM,0.15
same,relative viability,[13]; first compound 0.06325 µM,0.0769
same,relative viability,[13]; first compound 0.2 µM,0.11
same,relative viability,[14]; first compound 0.002 µM,0.525
same,relative viability,[14]; first compound 0.006325 µM,0.426
same,relative viability,[14]; first compound 0.02 µM,0.307
same,relative viability,[14]; first compound 0.06325 µM,0.149
same,relative viability,[14]; first compound 0.2 µM,0.134
same,relative viability,[15]; first compound 0.002 µM,0.984
same,relative viability,[15]; first compound 0.006325 µM,1.01
same,relative viability,[15]; first compound 0.06325 µM,0.846
same,relative viability,[15]; first compound 0.2 µM,0.296
same,relative viability,[16]; first compound 0.002 µM,0.844
same,relative viability,[16]; first compound 0.006325 µM,0.719
same,relative viability,[16]; first compound 0.02 µM,0.614
same,relative viability,[16]; first compound 0.06325 µM,0.469
same,relative viability,[16]; first compound 0.2 µM,0.202
same,relative viability,[17]; first compound 0.002 µM,0.948
same,relative viability,[17]; first compound 0.006325 µM,0.942
same,relative viability,[17]; first compound 0.02 µM,0.626
same,relative viability,[17]; first compound 0.06325 µM,0.109
same,relative viability,[17]; first compound 0.2 µM,0.0654
same,relative viability,[18]; first compound 0.002 µM,0.585
same,relative viability,[18]; first compound 0.006325 µM,0.485
same,relative viability,[18]; first compound 0.02 µM,0.441
same,relative viability,[18]; first compound 0.06325 µM,0.376
same,relative viability,[18]; first compound 0.2 µM,0.391
same,relative viability,[19]; first compound 0.002 µM,0.607
same,relative viability,[19]; first compound 0.006325 µM,0.632
same,relative viability,[19]; first compound 0.02 µM,0.316
same,relative viability,[19]; first compound 0.06325 µM,0.14
same,relative viability,[19]; first compound 0.2 µM,0.134
same,relative viability,[20]; first compound 0.002 µM,0.936
same,relative viability,[20]; first compound 0.006325 µM,0.998
same,relative viability,[20]; first compound 0.02 µM,0.683
same,relative viability,[20]; first compound 0.06325 µM,0.533
same,relative viability,[20]; first compound 0.2 µM,0.178
